Test: Membrane permeation property of the cosurfactant in soft capsules over storage at room temperature (cosurfactant content by gas chromatography)
Type: physicochemical
Conditions: after 50 days
Procedure: The content of the cosurfactant in each soft capsule preparation was analyzed by gas chromatography. The components and their constitutional ratios in the compositions used in this experiment are given in the following Table 1 and the experiment results are given in the following Table 2.

In the case of `CO[C@H]1CO[C@H]2[C@@H]1OC[C@H]2OC` [dimethylisosorbide, 1,4:3,6-dianhydro-2,5-dimethyl-D-glucitol], the “change in content of the cosurfactant in the soft capsule” value is reported as “does not change in its content even after 50 days”.

Source: patent EP0650721B1 (HANMI PHARM. IND. CO., LTD., priority 1993, dated 1995)
